# Assay results taken from patent US20220356163A1, “SMALL MOLECULE INHIBITORS OF Id PROTEINS” (MEMORIAL SLOAN KETTERING CANCER CENTER, priority 2019, published 2022).
# Key:
# [1] = tested on: HUVEC; test: HUVEC cell branching assay on Matrigel; assay type: cell-based, human; settings: 0-40 μM, 18-20 hours, p<0.05
# Description: HUVEC cell branching assays. For branching assays, 350 μL of Matrigel was loaded into each well of a 24-well plate on ice and incubate the plate for 30 minutes at 37° C. to allow the Matrigel to solidify. 80,000 HUVECs in 0.5 mL of EGM-2 medium with the indicated AGX concentration was plated on the solidified Matrigel. At 18-20 hours of incubation when the tube formation was peaked, media from the well was carefully removed and fixed with 10% buffered formalin for 15 minutes. Each well was washed with DPBS. The morphology of capillary like structures was visualized using an inverted microscope and photographed with a digital camera at 10× magnification. To quantify the tube network, Image J with the Angiogenesis Analyzer plugin (public domain Java-based image-processing program, reference: Carpentier G. ImageJ contribution: Angiogenesis Analyzer. ImageJ News. 2012) was installed and the analysis for the number of nodes, junctions, meshes and total branching length was performed as per the instruction. The statistical data analyses were performed using the Wilcoxon test.
# [2] = tested on: MDA-MB-231; test: MTT assay, MDA-MB-231; assay type: cell-based; set-up: scale not given here; settings: MDA-MB-231, TNBC cell line, 24 hours
# Excerpt: (§1) The 4T1 murine mammary tumor cell line and nine breast cancer cell lines representing the major breast cancer subtypes (ER+, HER2+, and TNBC) including MDA-MB-157, MDA-MB-436, MDA-MB-231, MDA-MB-453, MDA-MB-361, BT-474, SK-BR-3, MCF-7 and T47-D will be grown in RPMI or DMEM (Dulbecco's Modified Eagle Medium) media supplemented with 10% FBS (fetal bovine serum), 1% penicillin-streptomycin and 1% L-Glutamine. Patient derived xenograft cell lines BR7, BR11, and IBT will be established directly from breast cancer bone metastases specimens surgically resected from patients with informed consent. BR7 and BR11 specimens will be obtained from ER positive (HER2 negative and PR negative) metastatic breast cancer patients, while the IBT specimen will be obtained from a metastatic, triple negative breast cancer patient. Fresh tumor tissues will be quickly washed with ice cold PBS and minced into about 1-3 mm pieces in MEM medium (without FBS) using sterile razor blades. […] The cells will be treated with either 100 μM DMSO, AGX51, or a compound of the present technology such as AGX-A. The cell morphology and growth will be monitored daily for 1 week by microscopy for changes in morphology or cell death. […] Absorbance will then measured at 570 nm using a plate reader (Synergy 2, BioTek). […]
# [3] = tested on: MDA-MB-157; test: MTT assay, MDA-MB-157; assay type: cell-based; settings: Homo sapiens, 24 h, MDA-MB-157, TNBC cell line, read-out: IC50 value after 24 hours of treatment
# Excerpt: as §1
# [4] = tested on: lung metastases; test: LLC metastasis model; assay type: in vivo, mouse; settings: daily ip
# Description: Thirty C57BL/6 mice will be implanted with 7.5×10^5 LLC cancer cells/animal. Seven days after implantation, 5M/5F per group will be treated daily ip for 25 days with dosing vehicle (DMSO), AGX51, or a compound of the present technology (such as AGX-A). Fourteen days after implantation, another group of 5M/5F animals will be treated daily ip for 18 days with 50 mg/kg of AGX51 and another group of 5M/5F animals will be treated daily ip for 18 days with a compound of the present technology (such as AGX-A). Tumors will be measured three times from Day 7 to 14. On Day 14, the tumors will be excised. The animals will be necropsied for the presence of lung metastases on day 32, 18 days post excision.
# [5] = biological target: E47 (Homo sapiens, UniProt P15923); test: Circular dichroism (CD) of E47; assay type: binding; settings: 0, 10, 20 and 50 μM
# Description: Circular dichroism. Far UV Circular dichroism (CD) measurements were done on a Jasco J-1500 spectropolarimeter at room temperature using a 0.1 cm cell and a 0.1 mg/mL protein solution in the absence of presence of AGX51, AGX51E1, AGX51E2 or AGX-A. Due to the presence of DMSO in the samples, the lowest wavelength to be scanned is limited.
# Chain of E47 (P15923 1-651 isoform P15923-2): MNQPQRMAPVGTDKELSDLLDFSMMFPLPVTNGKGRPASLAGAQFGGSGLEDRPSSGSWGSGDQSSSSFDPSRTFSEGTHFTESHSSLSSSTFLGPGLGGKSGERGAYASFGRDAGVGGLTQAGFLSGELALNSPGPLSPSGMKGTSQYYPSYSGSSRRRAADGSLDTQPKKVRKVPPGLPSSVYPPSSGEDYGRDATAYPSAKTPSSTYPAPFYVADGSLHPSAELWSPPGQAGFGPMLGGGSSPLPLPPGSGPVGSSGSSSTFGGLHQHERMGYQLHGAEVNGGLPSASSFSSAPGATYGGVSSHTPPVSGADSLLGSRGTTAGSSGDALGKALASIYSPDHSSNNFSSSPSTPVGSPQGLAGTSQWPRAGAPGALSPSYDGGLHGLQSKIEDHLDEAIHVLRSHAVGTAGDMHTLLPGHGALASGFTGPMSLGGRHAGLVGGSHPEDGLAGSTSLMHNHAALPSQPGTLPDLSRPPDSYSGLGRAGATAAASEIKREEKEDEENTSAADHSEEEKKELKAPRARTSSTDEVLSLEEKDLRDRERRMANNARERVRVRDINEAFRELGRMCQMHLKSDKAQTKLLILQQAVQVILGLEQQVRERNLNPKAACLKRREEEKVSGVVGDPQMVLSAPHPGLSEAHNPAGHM
structure (smiles),measurement,setting,value
"CCC(=O)N(CCC(c1ccc2c(c1)OCO2)c1ccccc1OC)Cc1ccccc1 (racemic) [AGX51, N-(3-(benzo[d][1,3]dioxol-5-yl)-3-(2-methoxyphenyl)propyl)-N-benzylpropionamide]","vascular branching (nodes, junctions, meshes, branch length)",[1],significantly impaired in a dose-dependent manner
same,percentage at 60 μM (IC50 NA),[2],NA (60 μM = 70%)
same,IC50,[3],22.3 µM
same,lung metastases,[4],profoundly diminish lung metastases
same,interaction with E47 (CD),[5],no evidence of an interaction
